These results are taken from US20060183670A1, “Autoantigen composition” (priority 2001, published 2006).

In one series the test system is NOD scid/scid mice. Description: Adoptive transfer of splenocytes from vaccinated NOD mice into NOD scid/scid mice. It counts as in vivo. Conditions: for effect on incidence of diabetes in NOD scid/scid adoptive transfer model (in words): antigen in IFA; for scid/scid recipient mice that became diabetic: antigen in IFA sc. to NOD donors at 3, 5 and 7 weeks, splenocytes cotransferred with untreated NOD splenocytes, by the 75th day after adoptive transfer, 16 mice/group.

Series [1] has as its system NOD mice. Description: Histological insulitis grading of pancreases of vaccinated NOD mice. Conditions: antigen in IFA; for mean insulitis score: 0-4 scale, pancreases at the time of adoptive transfer (9 weeks of age). It counts as in vivo.
Protocol: Histological studies were performed on the pancreases of the vaccinated mice at the time of adoptive transfer.
Another series relates to human. Conditions: pilot human trial; Keller et al. 1993; cited from earlier work.
The subject of another series is mice. The following applies: mouse, in vivo.
The test system of series [2] is NOD mice. Conditions: cited from earlier work.

Protocol for NOD scid/scid mice: To test the efficacy of autoantigens in IFA, NOD mice were vaccinated with human recombinant GAD65 (300 μg/mice) in IFA (total volume 0.1 ml), human insulin B-chain (20.1 μg/mice) in IFA (total volume 0.1 ml) and sham protein (Lysozyme, 200 μg/mice) in IFA (total volume 0.1 ml) sc. in the inguinal areas at 3, 5 and 7 weeks of age. At 9 weeks of age the treated mice were sacrificed and their splenocytes (1.0×10^7 cells) were cotransfered with splenocytes from 9 weeks old untreated NOD mice (1.0×10^7 cells) into 9-11 weeks old NOD scid/scid mice (16 mice/group; total 2.0×10^7 cells/mice). Control group received splenocytes (2.0×10^7 cells/mice) from untreated NOD mice.

Lysozyme [reference compound]: in the series with NOD scid/scid mice, the “effect on incidence of diabetes in NOD scid/scid adoptive transfer model (in words)” value is listed as “not effective” and the “scid/scid recipient mice that became diabetic” value is “all”. Also, the mean insulitis score with NOD mice [1] is given as 2.64.

For “Insulin: β-cell specific major protein, moderately immunogenic when used alone”, the “development of diabetes mellitus” value in the series on human is reported as “delaying the development of diabetes mellitus”.

For “GAD65: Human recombinant GAD65, 585 amino acid β-cell autoantigen (SEQ ID NO:2), given in IFA”, the “adverse effects, general and local” value in the series on mice is reported as “well tolerated without any detectable side effects”. Moreover, in the series on NOD scid/scid mice, the “effect on incidence of diabetes in NOD scid/scid adoptive transfer model (in words)” value is reported as “significantly reduces the incidence of diabetes” and the “scid/scid recipient mice that became diabetic” value is recorded as 4/16. In addition, in the series with NOD mice [2] (nasal administration, Tian et al. 1996), the Th1/Th2 balance result is recorded as “change in Th1/Th2 balance in favor of Th2 ‘protective’ cells response”. In addition, in the series on NOD mice [1], the mean insulitis score is reported as 1.31 and the “effect on insulitis in NOD mice (in words)” value is reported as “reduced insulitis”.

With “human recombinant insulin B-chain: Literature recombinant human insulin B-chain given in IFA (Ramiya et al.) [reference compound]”, in the series with NOD mice [2] (in IFA, Ramiya et al. 1996), the “cytokine pattern in NOD mice islets” value is reported as “Th2 cytokine pattern”.
